# Tests used:
# [1] = Zeta-potential of siRNA-lipid complexes (Malvern Zetasizer); format: physicochemical
# Description: (§1) The cationic lipid carriers are dissolved in ethanol at a stock concentration of 2.5 mM, while all siRNA is reconstituted in nuclease-free water at a 0.25 μg/μL (18.8 μM) concentration. Nanoparticles are formulated by mixing the carriers with siRNA for a period of 30 min in RNase-free phosphate buffer saline (PBS) at pre-specified N/P ratios (N=number of protonable amines in lipid, P=number of phosphate groups in the siRNA). In preparing the lipoplexes, proper dilutions were made such that the volume ratio of ethanol:water was kept constant at 1:20. Minimizing the amount of ethanol is important because it is effective in dissolving lipids, thus inhibiting particle formation. The diameters (as determined by dynamic light scattering) and zeta potentials of all nanoparticles were analyzed using a Malvern Zetasizer instrument at pH=7.4. siRNA encapsulation efficiency was calculated using a RiboGreen fluorescence-based assay from Invitrogen, designed specifically for detection of free RNA at […] wavelengths of 480 and 520 nm, respectively. Nanoparticles were created with all carriers in the library so that final siRNA concentrations were 1.6 μg/mL. A linear standard curve was utilized to calculate the encapsulation efficiencies from signal intensities measured by a SpectraMax microplate reader (Molecular Devices).
# [2] = Nanoparticle diameter and polydispersity by dynamic light scattering (Malvern Zetasizer); format: physicochemical; conditions: for Nanoparticle diameter as measured by dynamic light scattering: siRNA-lipid complexes
# Description: as §1
# Red blood cells (RBCs) = test: pH-sensitive hemolytic activity of carrier library; format: cell-based, rat; conditions: all N/P ratios (5, 10, 15) and pHs (7.4, 6.5, 5.4) tested
# Description: Hemolytic activity of each carrier was determined to verify the pH-sensitive membrane disruption capabilities of each carrier in the delivery system. Red blood cells (RBCs) extracted from rats were purchased from Innovative Research Inc. (Novi, Mich.) and diluted 1:50 in PBS solutions of pHs=5.4, 6.5, or 7.4. A total of 100 μL of nanoparticles were created at N/P ratios of 5, 10, 15 and then incubated with 100 μL of diluted RBCs at 37° C. for 2 h. Nanoparticles were formulated so that the final amine concentration for all the samples, after mixing with the RBCs, was 150 μM. Multiple pHs were tested to predict if the nanoparticles could disrupt membranes of the endosomal-lysosomal compartments (pH=5-6), without affecting the integrity of the outer cell membrane prior to endocytosis (pH=7.4). The absorbance of each test sample was measured on a SpectraMax spectrophotometer at a wavelength of 540 nm in order to determine the amount of hemoglobin released from the RBCs, due to membrane destabilization, relative to that achieved by a positive control treatment of 1% (v/v) Triton-X100 surfactant during the 2 hour incubation period.
# [3] = test system: HT29 colon carcinoma cells; test: Cellular uptake of Alexa Fluor 488-siRNA via flow cytometry; format: cell-based, human; conditions: HT29, N/P=18, 4 h, 100 nM Alexa Fluor 488-siRNA
# Description: Flow cytometry was used to investigate the cellular uptake of our delivery system in HT29 colon carcinoma cells. All carriers in the library were formulated into nanoparticles by condensing Alexa Fluor 488-labeled siRNA at the optimal N/P ratio determined by the above luciferase knockdown studies. Approximately 50,000 cancer cells were seeded in 6-well plates and allowed to grow until 30-50% confluence was reached. The cancer cells were transfected with a 100 nM siRNA dose in serum-free media. After 4 h, the transfection media were aspirated and the cells were washed twice with PBS. The cells were then trypsinized, collected, and fixed with 2% paraformaldehyde in PBS, prior to flow cytometric analysis.
# MDA-MB-231 cells = test: MTT cytotoxicity with PTX after siRNA nanoparticles, MDA-MB-231; format: cell-based; conditions: Homo sapiens; MDA-MB-231, 0.5 ng/mL PTX 48 hours; combination: nanoparticles 48 hours first; read-out: cell viability (MTT)
# Description: (§2) Cytotoxicity assays were performed in a 96-well plate as described previously, by seeding 2,000 MDA-MB-231 or MDA-MB-231.DR cells/well. […] Next, the wells were washed twice with PBS and incubation with various concentrations of PTX in fresh media. After 2 additional days, the MTT reagent (Invitrogen) was added to the cells for 4 hours followed by the addition of SDS-HCl and further incubation for 4 hours. The absorbance of each well was measured at 570 nm using a SpectraMax spectrophotometer (Molecular Devices). Cellular viability was calculated as the average of the set of triplicates for each PTX concentration and was normalized relative to the no treatment control. Drug resistance was confirmed with an MTT assay to determine the IC50 of paclitaxel. The IC50 was defined as the dose of drug required to inhibit cell viability by 50%.
# MDA-MB-231.DR cells = test: MTT cytotoxicity with PTX after siRNA nanoparticles, MDA-MB-231.DR; format: cell-based; conditions: Homo sapiens, 0.5 ng/mL PTX 48 hours, combination: nanoparticles 48 hours first, read-out: cell viability (MTT)
# Description: as §2
SMILES,"Zeta-potential of siRNA-lipid complexes ([1]; pH = 7.4, N/P = 2)","Zeta-potential of siRNA-lipid complexes ([1]; pH = 7.4, N/P = 5)","Zeta-potential of siRNA-lipid complexes ([1]; pH = 7.4, N/P = 8)","Zeta-potential of siRNA-lipid complexes ([1]; pH = 7.4, N/P = 10)","Zeta-potential of siRNA-lipid complexes ([1]; pH = 7.4, N/P = 15)",Polydispersity of siRNA-lipid complexes ([2]; N/P = 2),Polydispersity of siRNA-lipid complexes ([2]; N/P = 5),Polydispersity of siRNA-lipid complexes ([2]; N/P = 8),Polydispersity of siRNA-lipid complexes ([2]; N/P = 10),Polydispersity of siRNA-lipid complexes ([2]; N/P = 15),Nanoparticle diameter as measured by dynamic light scattering ([2]; N/P = 2),Nanoparticle diameter as measured by dynamic light scattering ([2]; N/P = 5),Nanoparticle diameter as measured by dynamic light scattering ([2]; N/P = 8),Nanoparticle diameter as measured by dynamic light scattering ([2]; N/P = 10),Nanoparticle diameter as measured by dynamic light scattering ([2]; N/P = 15),hemolytic activity relative to Triton X-100 (Red blood cells (RBCs)),"cellular uptake, mean fluorescence intensity (MFI) [3]",viability at 0.0005 µg/mL (MDA-MB-231 cells),viability at 0.0005 µg/mL (MDA-MB-231.DR cells)
CCCCC/C=C\C/C=C\CCCCCCCC(=O)NC(CS)C(=O)NCCNC(=O)CCN(CCCNCCCCNCCCN)CCC(=O)NCCNC(=O)C(CS)NC(=O)CCCCCCC/C=C\C/C=C\CCCCC (stereo not shown) [SCLn],−28.35 ± 3.61 mV,26.89 ± 1.85 mV,26.03 ± 2.25 mV,28.59 ± 2.25 mV,17.15 ± 2.99 mV,0.298,0.233,0.140,0.184,0.180,482 ± 40 nm,185 ± 22 nm,51 ± 14 nm,50 ± 12 nm,48 ± 12 nm,greatest hemolytic activity,4066±185,–,–
"CC(=O)O[C@H]1C(=O)[C@@]2(C)[C@H]([C@H](OC(=O)c3ccccc3)[C@]3(O)C[C@H](OC(=O)[C@H](O)[C@@H](NC(=O)c4ccccc4)c4ccccc4)C(C)=C1C3(C)C)[C@]1(OC(C)=O)CO[C@@H]1C[C@@H]2O [PTX, paclitaxel]",–,–,–,–,–,–,–,–,–,–,–,–,–,–,–,–,–,44.6 ± 6.6%,80.7 ± 2.9%

# Source: patent US11129845B2, “Compositions and methods for the delivery of nucleic acids” (CASE WESTERN RESERVE UNIVERSITY, priority 2014, dated 2021)
